Assay [1] has as its system Alternaria alternata. Briefly: Alternaria alternata in vitro cell test. Type of assay: cell-based. Conditions: 120 h, 20 ppm of active ingredient, 5 days incubation, liquid culture, spectrometric measurement of mycelium growth, read-out: efficacy (inhibition of fungal growth). On the procedure:
(§1) • Solvent: DMSO • Culture medium: 14.6 g anhydrous D-glucose (VWR), 7.1 g Mycological Peptone (Oxoid), 1.4 g granulated Yeast Extract (Merck), QSP 1 liter • Inoculum: spore suspension Fungicides were solubilized in DMSO and the solution used to prepare the required range of concentrations. […] A spore suspension of A. alternata was prepared and diluted to the desired spore density. Fungicides were evaluated for their ability to inhibit spore germination and mycelium growth in liquid culture assay. The compounds were added in the desired concentration to the culture medium with spores. After 5 days incubation, fungi-toxicity of compounds was determined by spectrometric measurement of mycelium growth. Inhibition of fungal growth was determined by comparing the absorbance values in wells containing the fungicides with the absorbance in control wells without fungicides.

Assay [2] deals with Pyricularia oryzae. The assay can be described thus: microbe, parasite or virus in culture. Conditions: 120 h, read-out: efficacy (inhibition of fungal growth). It is filed as cell-based.
Assay [3] relates to Colletotrichum lindemuthianum. The assay can be described thus: Colletotrichum lindemuthianum in vitro cell test. Type of assay: cell-based. Conditions: 144 h, 20 ppm of active ingredient, 6 days incubation, liquid culture, spectrometric measurement of mycelium growth, read-out: efficacy (inhibition of fungal growth). The method, then: as §1, with “of C. lindemuthianum” for “of A. alternata”, “inhibit spores” for “inhibit spore”, “After 6” for “After 5”

Assay [4] relates to Pyrenophora teres. Briefly: Pyrenophora teres in vitro cell test. Conditions: 144 h, 20 ppm of active ingredient, 6 days incubation, liquid culture, spectrometric measurement of mycelium growth, read-out: efficacy (inhibition of fungal growth). Type of assay: cell-based. The method, then:
as §1, with “P. teres” for “A. alternata”, “6” for “5”

Assay [5] has as its system Botrytis cinerea. Briefly: Botrytis cinerea in vitro cell test. Conditions: 144 h, 20 ppm of active ingredient, 6 days incubation, liquid culture, spectrometric measurement of mycelium growth, read-out: efficacy (inhibition of fungal growth). Type of assay: cell-based. On the procedure:
• Solvent: DMSO • Culture medium: 1 g KH2PO4 (VWR), 1 g K2HPO4 (VWR), 0.5 g Urea (VWR), 3 g KNO3 (Prolabo), 10 g saccharose (VWR), 0.5 g MgSO4, 7H2O (Sigma), 0.07 g CaCl2, 2H2O (Prolabo), 0.2 mg MnSO4, H2O (Sigma), 0.6 mg CuSO4, 5H2O (Sigma), 7.9 mg ZnSO4, 7H2O (Sigma), 0.1 mg H3BO3 (Merck), 0.14 mg NaMoO4, 2H2O (Sigma), 2 mg thiamine (Sigma), 0.1 mg biotine (VWR), 4 mg FeSO4, 7H2O (Sigma), QSP 1 liter • Inoculum: spore suspension Fungicides were solubilized in DMSO and the solution used to prepare the required range of concentrations. […] A spore suspension of B. cinerea was prepared and diluted to the desired spore density. Fungicides were evaluated for their ability to inhibit spore germination and mycelium growth in liquid culture assay. The compounds were added in the desired concentration to the culture medium with spores. After 6 days incubation, fungi-toxicity of compounds was determined by spectrometric measurement of mycelium growth. Inhibition of fungal growth was determined by comparing the absorbance values in wells containing the fungicides with the absorbance in control wells without fungicides.

Assay [6] has as its system Alternaria brassicae. Briefly: In vivo preventive test on Alternaria brassicae (leaf spot on radish or cabbage). Conditions: 144 h, 500 ppm of active ingredient, preventive spray on young radish or cabbage plants, evaluated 6 days after inoculation, read-out: efficacy. The method, then:
The active ingredients were made soluble and homogenized in a mixture of Dimethyl sulfoxide/Acetone//Tween®80 and then diluted in water to the desired concentration. The young plants of radish or cabbage were treated by spraying the active ingredient prepared as described above. Control plants were treated only with an aqueous solution of Acetone/Dimethyl sulfoxide/Tween® 80. After 24 hours, the plants were contaminated by spraying the leaves with an aqueous suspension of Alternaria brassicae spores.

Assay [7] relates to Botrytis cinerea. Briefly: In vivo preventive test on Botrytis cinerea (grey mould). Conditions: 500 ppm of active ingredient, preventive spray on young gherkin or cabbage plants, evaluated 4 to 5 days after inoculation, read-out: efficacy. The method, then:
The active ingredients were made soluble and homogenized in a mixture of Dimethyl sulfoxide/Acetone//Tween®80 and then diluted in water to the desired concentration. The young plants of gherkin or cabbage were treated by spraying the active ingredient prepared as described above. Control plants were treated only with an aqueous solution of Acetone/Dimethyl sulfoxide/Tween® 80. After 24 hours, the plants were contaminated by spraying the leaves with an aqueous suspension of Botrytis cinerea spores.

For assay [8], the system named is Sphaerotheca fuliginea. The assay can be described thus: In vivo preventive test on Sphaerotheca fuliginea (powdery mildew on cucurbits). Conditions: Podosphaera fuliginea, 192 h; 500 ppm of active ingredient; preventive spray on young gherkin plants; evaluated 8 days after inoculation; read-out: efficacy. On the procedure:
The active ingredients were made soluble and homogenized in a mixture of Dimethyl sulfoxide/Acetone//Tween®80 and then diluted in water to the desired concentration. The young plants of gherkin were treated by spraying the active ingredient prepared as described above. Control plants were treated only with an aqueous solution of Acetone/Dimethyl sulfoxide/Tween® 80. After 24 hours, the plants were contaminated by spraying the leaves with an aqueous suspension of Sphaerotheca fuliginea spores.

Assay [9] deals with Colletotrichum lindemuthianum. The assay can be described thus: In vivo preventive test on Colletotrichum lindemuthianum (leaf spot on bean). Conditions: 168 h, 500 ppm of active ingredient, preventive spray on young bean plants, evaluated 7 days after inoculation, read-out: efficacy. On the procedure: The active ingredients were made soluble and homogenized in a mixture of Dimethyl sulfoxide/Acetone//Tween®80 and then diluted in water to the desired concentration. The young plants of bean were treated by spraying the active ingredient prepared as described above. Control plants were treated only with an aqueous solution of Acetone/Dimethyl sulfoxide/Tween® 80. After 24 hours, the plants were contaminated by spraying the leaves with an aqueous suspension of Colletotrichum lindemuthianum spores.

These results are taken from patent US12565489B2, “Heterocyclyl pyrimidines and triazines as novel fungicides” (Bayer Aktiengesellschaft, priority 2020, dated 2026).

As a reminder, the inhibition is the share of the control response that was lost under treatment.

Take `Cc1ccc(CC2CON=C(c3nc(C)ncc3Oc3cccc(C(F)(F)F)c3)N2)c(C)c1` (racemic) [Compound I-002, (5RS)-5-(2,4-dimethylbenzyl)-3-{2-methyl-5-[3-(trifluoro-methyl)phenoxy]pyrimidin-4-yl}-5,6-dihydro-4H-1,2,4-oxadiazine]: the inhibition at 20 ppm in [1], in [2], in assay [3], in assay [4] and in assay [5] was 90 to 100% in each case. In addition, the pest or weed control at 500 ppm in [6], in [7], in assay [8] and in assay [9] was 90 to 100% throughout.
For the compound `C=Cc1cccc(Oc2cnc(C)nc2C2=NOC[C@@H](Cc3ccc(C)cc3C)N2)c1` (racemic) [Compound I-019], the inhibition at 20 ppm in assay [1], in assay [2], in assay [3], in assay [4] and in assay [5] was 90 to 100% throughout. In addition, the pest or weed control at 500 ppm in [6] was 90 to 100%; in assay [7], 90 to 100%; in assay [8] it was 80 to 89%; in [9], 90 to 100%.
Regarding `Cc1ccc(C[C@@H]2CON=C(c3nc(C)ncc3Oc3cccc(Cl)c3F)N2)c(Cl)c1` (racemic) [Compound I-005], the inhibition at 20 ppm in assay [1] lay in the range of 90 to 100%; in assay [2], 80 to 89%; in assay [3], 90 to 100%; in assay [4], 90 to 100%; in assay [5] it was 90 to 100%. For the same compound, the pest or weed control at 500 ppm in [6], in assay [7], in [8] and in assay [9] was 90 to 100% throughout.
On to `Cc1ccc(C[C@@H]2CON=C(c3nc(C)ncc3Oc3cccc(Br)c3)N2)c(C)c1` (racemic) [Compound I-009], for which the inhibition at 20 ppm in assay [1], in assay [2], in [3], in assay [4] and in assay [5] was 90 to 100% in each case. The pest or weed control at 500 ppm in assay [6], in [7], in assay [8] and in [9] was 90 to 100% throughout.
Consider `Cc1ccc(C[C@@H]2CON=C(c3nc(C)ncc3Oc3cccc(C(F)(F)F)c3)N2)c(Cl)c1` (racemic) [Compound I-013], for which the inhibition at 20 ppm in assay [1], in [3], in [4] and in assay [5] was 90 to 100% each time. Moreover, the pest or weed control at 500 ppm in [6], in assay [7], in assay [8] and in assay [9] was 90 to 100% throughout.
Regarding `Cc1ncc(Oc2cccc(C(F)(F)F)c2)c(C2=NOC[C@@H](Cc3ccc(SC(F)(F)F)cc3)N2)n1` (racemic) [Compound I-030], the inhibition at 20 ppm in assay [1] lay within 80 to 89%; in assay [3] it was 90 to 100%; in assay [4] it was 90 to 100%; in assay [5], 90 to 100%. In addition, the pest or weed control at 500 ppm in assay [6] lay in the range of 80 to 89%; in assay [7], 90 to 100%; in [8], 90 to 100%; in assay [9], 70 to 79%.
Take `CSc1ncc(Oc2cccc(C(F)(F)F)c2)c(C2=NOC[C@@H](Cc3ccc(C)cc3C)N2)n1` (racemic) [Compound I-017]: the inhibition at 20 ppm in assay [1] lay within 70 to 79%; in [3] it was 90 to 100%; in assay [4], 90 to 100%; in [5], 90 to 100%. Moreover, the pest or weed control at 500 ppm in [6] lay within 90 to 100%; in assay [7], 90 to 100%; in [8], 90 to 100%; in assay [9], 80 to 89%.
